Experimental data taken from ChEMBL document CHEMBL5465560, “Selectivity Literature for EUbOPEN Chemogenomic Library” (2024).
pIC50: −log10 of the molar value.

How the values were obtained:
[1] = molecular target: Calcium/calmodulin-dependent protein kinase kinase 2 (Homo sapiens) (UniProt Q96RR4); assay: Selectivity interaction (Kinase panel (KiNativ target engagement assay in Jurkat cells)) EUB0001635a CAMKK2; type: cell-based; settings: Selectivity number of off-targets 0.0, Selectivity number of targets 233.0, Source Knowledge https://www.sciencedirect.com/science/article/pii/S2451945619300674?via%3Dihub, at 1 µM
[2] = molecular target: MAP kinase-interacting serine/threonine-protein kinase 2 (Homo sapiens, UniProt Q9HBH9)
[3] = molecular target: T1, Serine/threonine-protein kinase TAO2 (Homo sapiens) (UniProt Q9UL54); assay: Selectivity interaction (SelectScreen profiling (Invitrogen)) EUB0000607a TAOK2; settings: at 2 µM
T1 sequence (whole entry): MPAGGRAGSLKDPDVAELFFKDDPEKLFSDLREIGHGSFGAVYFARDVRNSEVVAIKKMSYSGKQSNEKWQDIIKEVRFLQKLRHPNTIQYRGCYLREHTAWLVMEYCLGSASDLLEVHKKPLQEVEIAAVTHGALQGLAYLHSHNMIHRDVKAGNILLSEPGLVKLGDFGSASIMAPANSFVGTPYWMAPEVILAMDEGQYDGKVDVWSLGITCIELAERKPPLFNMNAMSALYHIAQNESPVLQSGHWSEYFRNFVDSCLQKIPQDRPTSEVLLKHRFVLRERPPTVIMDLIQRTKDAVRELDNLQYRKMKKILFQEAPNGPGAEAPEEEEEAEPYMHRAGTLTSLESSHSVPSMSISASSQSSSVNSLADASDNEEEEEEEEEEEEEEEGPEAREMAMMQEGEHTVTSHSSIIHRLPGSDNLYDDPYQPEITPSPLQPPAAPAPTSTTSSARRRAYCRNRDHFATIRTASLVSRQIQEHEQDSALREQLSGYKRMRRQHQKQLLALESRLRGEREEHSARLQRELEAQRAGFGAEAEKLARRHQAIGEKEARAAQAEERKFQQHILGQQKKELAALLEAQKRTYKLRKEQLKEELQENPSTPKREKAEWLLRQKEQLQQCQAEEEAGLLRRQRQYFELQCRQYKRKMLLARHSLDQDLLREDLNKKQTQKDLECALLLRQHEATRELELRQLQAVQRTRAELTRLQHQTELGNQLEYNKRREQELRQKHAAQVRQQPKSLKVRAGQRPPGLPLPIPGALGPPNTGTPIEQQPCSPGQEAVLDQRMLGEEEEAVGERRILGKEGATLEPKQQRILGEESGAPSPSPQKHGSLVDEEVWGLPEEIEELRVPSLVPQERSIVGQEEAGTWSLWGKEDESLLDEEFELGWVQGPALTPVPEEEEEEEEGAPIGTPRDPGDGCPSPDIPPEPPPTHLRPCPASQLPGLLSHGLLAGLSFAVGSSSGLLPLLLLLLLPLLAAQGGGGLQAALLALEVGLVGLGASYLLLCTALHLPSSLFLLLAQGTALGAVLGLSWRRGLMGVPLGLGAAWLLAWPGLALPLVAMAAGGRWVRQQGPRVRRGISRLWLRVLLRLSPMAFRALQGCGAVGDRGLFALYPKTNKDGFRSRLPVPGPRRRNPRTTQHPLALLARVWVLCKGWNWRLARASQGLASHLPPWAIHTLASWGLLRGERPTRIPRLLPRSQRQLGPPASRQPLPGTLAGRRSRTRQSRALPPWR

[4] = molecular target: Cyclin-dependent kinase 15 (Homo sapiens) (UniProt Q96Q40); assay: Selectivity interaction (KinomeScan (DiscoverX)) EUB0000045b CDK15
[5] = molecular target: T2, Myosin light chain kinase family member 4 (Homo sapiens) (UniProt Q86YV6); assay: Selectivity interaction (Ambit KINOMEscan and KiNATiv profiling in Jurkat cells) EUB0000090b MYLK4; type: cell-based; settings: at 1 µM
T2 sequence (whole entry): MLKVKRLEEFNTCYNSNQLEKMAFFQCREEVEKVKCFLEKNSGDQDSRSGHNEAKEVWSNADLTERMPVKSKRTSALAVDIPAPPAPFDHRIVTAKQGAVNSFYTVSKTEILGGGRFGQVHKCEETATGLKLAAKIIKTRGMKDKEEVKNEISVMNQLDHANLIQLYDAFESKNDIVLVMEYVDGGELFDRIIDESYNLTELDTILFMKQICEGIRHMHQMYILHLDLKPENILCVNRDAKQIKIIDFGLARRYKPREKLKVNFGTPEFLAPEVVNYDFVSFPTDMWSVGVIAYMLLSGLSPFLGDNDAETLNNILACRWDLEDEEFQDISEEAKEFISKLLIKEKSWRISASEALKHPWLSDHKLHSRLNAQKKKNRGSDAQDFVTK

[6] = molecular target: Glycogen synthase kinase-3 alpha (Homo sapiens, UniProt P49840); assay: Selectivity interaction (ActivX KiNativ screen (ex vivo kinase selectivity in human PBMCs)) EUB0001619a GSK3A; type: cell-based; settings: PBMC, at 1 µM
Chain of Glycogen synthase kinase-3 alpha (P49840 2-483 limits assumed): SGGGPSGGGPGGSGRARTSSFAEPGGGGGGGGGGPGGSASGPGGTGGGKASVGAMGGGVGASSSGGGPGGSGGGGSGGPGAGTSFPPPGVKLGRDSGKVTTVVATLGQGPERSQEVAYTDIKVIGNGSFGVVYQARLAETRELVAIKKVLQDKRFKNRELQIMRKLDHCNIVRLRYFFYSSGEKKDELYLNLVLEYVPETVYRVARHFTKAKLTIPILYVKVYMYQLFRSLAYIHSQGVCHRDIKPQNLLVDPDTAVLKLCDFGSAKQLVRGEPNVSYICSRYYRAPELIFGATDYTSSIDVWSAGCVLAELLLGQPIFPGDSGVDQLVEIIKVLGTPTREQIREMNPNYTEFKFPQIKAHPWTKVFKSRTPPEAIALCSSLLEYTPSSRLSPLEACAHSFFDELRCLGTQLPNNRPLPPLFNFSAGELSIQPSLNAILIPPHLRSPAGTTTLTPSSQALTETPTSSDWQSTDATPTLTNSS

Chain of Cyclin-dependent kinase 15 (Homo sapiens) (Q96Q40 whole entry): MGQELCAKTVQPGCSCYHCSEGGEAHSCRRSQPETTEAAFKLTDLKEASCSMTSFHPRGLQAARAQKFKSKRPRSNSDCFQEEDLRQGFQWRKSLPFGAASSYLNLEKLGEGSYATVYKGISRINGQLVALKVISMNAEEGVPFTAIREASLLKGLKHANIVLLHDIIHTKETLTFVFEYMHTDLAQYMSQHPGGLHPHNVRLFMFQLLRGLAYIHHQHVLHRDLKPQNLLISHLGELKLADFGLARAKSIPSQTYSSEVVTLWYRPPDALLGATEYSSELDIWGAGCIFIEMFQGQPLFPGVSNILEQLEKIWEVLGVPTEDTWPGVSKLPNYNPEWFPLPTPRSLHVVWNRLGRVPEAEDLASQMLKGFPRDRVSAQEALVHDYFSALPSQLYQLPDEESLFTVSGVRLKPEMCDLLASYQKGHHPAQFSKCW
Chain of MAP kinase-interacting serine/threonine-protein kinase 2 (Q9HBH9 whole entry): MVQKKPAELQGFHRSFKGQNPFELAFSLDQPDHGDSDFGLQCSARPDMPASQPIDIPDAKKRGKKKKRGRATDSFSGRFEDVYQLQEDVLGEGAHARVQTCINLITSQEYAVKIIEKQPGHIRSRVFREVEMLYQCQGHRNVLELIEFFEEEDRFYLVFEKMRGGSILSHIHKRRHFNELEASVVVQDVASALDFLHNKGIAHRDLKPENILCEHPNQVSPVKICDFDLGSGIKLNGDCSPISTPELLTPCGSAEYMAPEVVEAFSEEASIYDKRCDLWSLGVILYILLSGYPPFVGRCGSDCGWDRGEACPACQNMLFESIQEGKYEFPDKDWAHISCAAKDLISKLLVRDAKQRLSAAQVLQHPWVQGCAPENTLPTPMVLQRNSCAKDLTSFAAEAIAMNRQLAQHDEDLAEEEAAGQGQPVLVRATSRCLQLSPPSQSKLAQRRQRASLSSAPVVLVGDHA
Chain of Calcium/calmodulin-dependent protein kinase kinase 2 (Homo sapiens) (Q96RR4 2-588 limits assumed): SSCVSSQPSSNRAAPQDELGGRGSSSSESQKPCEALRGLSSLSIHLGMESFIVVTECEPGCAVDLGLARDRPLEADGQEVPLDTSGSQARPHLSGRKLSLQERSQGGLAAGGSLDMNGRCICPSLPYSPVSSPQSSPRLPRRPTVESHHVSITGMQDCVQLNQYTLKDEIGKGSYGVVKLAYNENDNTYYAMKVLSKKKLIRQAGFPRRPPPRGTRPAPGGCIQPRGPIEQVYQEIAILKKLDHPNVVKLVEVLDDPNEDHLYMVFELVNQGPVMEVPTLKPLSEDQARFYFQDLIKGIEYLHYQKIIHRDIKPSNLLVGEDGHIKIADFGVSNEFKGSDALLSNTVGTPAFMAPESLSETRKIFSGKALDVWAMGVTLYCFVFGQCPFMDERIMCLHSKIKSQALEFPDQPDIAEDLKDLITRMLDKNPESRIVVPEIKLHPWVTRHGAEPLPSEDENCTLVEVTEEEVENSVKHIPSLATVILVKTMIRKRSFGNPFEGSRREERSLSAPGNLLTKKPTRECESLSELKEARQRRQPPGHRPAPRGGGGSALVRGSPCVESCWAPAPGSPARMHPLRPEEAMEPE

C=CC(=O)Nc1ccc(C(=O)Nc2[nH]nc3c2CN(C(=O)N[C@H](CN(C)C)c2ccccc2)C3(C)C)cc1
% of engagement [1]: -3.1%

CCc1cccc(CC)c1NC(=O)c1nn(C)c2c1CCc1cnc(Nc3ccc(C(=O)NC4CCN(C)CC4)cc3OC(F)(F)F)nc1-2
pIC50 [2]: < 5.00

CNC(=O)Nc1ccc(-c2nc(N3CC4CCC(C3)O4)c3cnn(C4CCC5(CC4)OCCO5)c3n2)cc1
% of inhibition [3]: 3%

C=CC(=O)Nc1cc(-n2c(=O)ccc3cnc4ccc(-c5ccc(NS(C)(=O)=O)cc5)cc4c32)ccc1C
% of control ([4]; at 1 µM): 100% | % of control ([4]; at 10 µM): 72%

CN(C)C/C=C/C(=O)Nc1ccc(C(=O)N2CCCC(Nc3ncc(Cl)c(-c4c[nH]c5ccccc45)n3)C2)cc1 (configuration not stated)
% of control [5]: 55%

N#Cc1cccc(-c2c[nH]c3ncnc(N4CCOCC4)c23)c1
% of inhibition [6]: 7%
